The text below walks through data of patent US20080262021A1, “1H-Imidazoquinoline Derivatives as Prote In Kinase Inhibitors” (NOVARTIS AG, priority 2003, published 2008).

pIC50: −log10 of the molar value.

Experiment [1] has as its target T1, S6K1 (Homo sapiens, UniProt P23443, T412E).
T1 construct: His (N); made in house; host or cells: Sf9 insect cells (baculovirus, pFastBacHT A), co-infected with GST-PDK1 virus
Briefly: S6K1 kinase inhibition (S6K1ΔCT/T412E, TR-FRET). It is filed as biochemical. The note with it: read-out: IC50 Range Class, inhibition of S6K1. The source says:
The DNA fragment encoding S6K1ΔCT/T412E is subcloned to the baculovirus donor vector pFastBacHT A to generate a recombinant baculovirus that expresses S6K1ΔCT/T412E. Transfer vectors for S6K1ΔCT/T412E are transfected into the DH10Bac cell line (GIBCO). After selection of white colonies, they are used for viral DNA (bacmid) preparation. Sf9 cells (American Type Culture Collection) cells are then transfected with the viral DNA using Cellfectin reagent. Virus-containing media is collected from the transfected cell culture and is used for infection to increase its titer. For large-scale protein expression, Sf9 cells are co-infected with S6K1ΔCT/T412E and GST-PDK1 virus-containing media with MOI of 2.25 and 1, respectively. After 3 days, the cells expressing the recombinant enzyme are resuspended in the culture medium with a sterilized cell scraper and harvested by centrifugation. The cells are resuspended in 5 volumes of cell pellet of Extraction Buffer (50 mM MOPS pH 7.0, containing 300 mM NaCl, 0.05% Tween-20, 10 mM sodium pyrophosphate, 50 mM β-glycerophosphate, 0.2 mM cantharidic acid and 1× complete-EDTA protease inhibitor cocktail) and then disrupted with 15 strokes of a Dounce homogenizer followed by sonication on ice. The homogenate is centrifuged at 4° C. for 60 minutes at 48,000×g. The supernatant is clarified with a 5 μm filter and subjected to purification with TALON Superflow Resin (Clontech). First, 1 mL of TALON resin per 5 mL of the supernatant was equilibrated with the Extraction Buffer and resuspended in the supernatant followed by gentle agitation for 20 minutes at RT. After centrifugation at 700×g for 5 minutes, supernatant is removed. The resin is washed twice by adding 10 bed volumes of the Extraction Buffer, agitating for 10 minutes at RT, centrifugating at 700×g for 5 minutes, and discarding the supernatant. The resin is then resuspended with the same volume of the Extraction Buffer and transferred to an disposable chromatography column. The packed column is washed once with 10 bed volumes of the Extraction Buffer and additionally with the same volume of Wash Buffer (5 mM imidazole in the Extraction Buffer). Then, the His-tagged S6K1ΔCT/T412E is eluted with four bed volumes of Elution Buffer (150 mM imidazole in the Extraction Buffer).
Measure of enzyme activity: The kinase assay with purified S6K1ΔCT/T412E is performed with TR-FRET (Time-Resolved Fluorescene Resonance Energy Transfer) technology. First, ATP-dependent phosphorylation of the biotinylated substrate peptide corresponding to residues 229-242 of S6 ribosomal protein (Biot-AKRRRLSSLRASTS) is carried out for 1 hour at 37° C. in […] under humidified air. The kinase reaction mixture of the final volume of 9 μL contains 2.57 ng of purified S6K1ΔCT/T412E protein, 50 mM MOPS (pH 7.0), 0.1 mM EGTA, 0.01 mM Na3VO4, 0.05% Tween-20, 0.01% BSA, 1 mM DTT, 10 mM MgCl2, 3 μM ATP, 0.5 μM biotinylated substrate peptide, 1% of DMSO or the text compounds of the formula (I) at the required concentration in 1% DMSO. For measurement of background, 20 mM of EDTA is added to the reaction mixture. […] Phosphorylated peptide indicative of kinase activity is quantitated by exciting the sample at 330 nm and comparing donor emission at 615 nm and acceptor emission at 665 nm by 2101 EnVision HTS multilabel plate reader (Perkin Elmer). […]
Background: In TR-FRET formats the signal depends on donor and acceptor labels being close together.

Experiment [2] deals with T2, ALK (Homo sapiens, UniProt Q9UM73).
T2 construct: using the recombinant kinase domain of the ALK in analogy to the VEGF-R kinase assay
T2 sequence (Q9UM73 1116-1392 limits assumed): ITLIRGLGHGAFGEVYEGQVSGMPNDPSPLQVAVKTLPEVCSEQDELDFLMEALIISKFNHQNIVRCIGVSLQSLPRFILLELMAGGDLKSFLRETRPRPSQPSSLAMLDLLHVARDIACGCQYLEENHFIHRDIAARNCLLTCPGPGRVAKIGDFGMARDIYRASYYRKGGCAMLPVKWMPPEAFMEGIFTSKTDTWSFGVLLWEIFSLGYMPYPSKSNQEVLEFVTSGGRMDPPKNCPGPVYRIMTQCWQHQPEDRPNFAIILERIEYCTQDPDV
Kind of experiment: ALK tyrosine kinase inhibition (GST-ALK filter binding assay). It is filed as biochemical. The note with it: for pIC50: read-out: IC50 Range Class, inhibition of ALK. The protocol: See Wood et al., Cancer Res, Vol. 60, No. 8, pp. 2178-2189 (2000). In vitro enzyme assays using GST-ALK protein tyrosine kinase are performed in 96-well plates as a filter binding assay in 20 mM tris-HCl, pH=7.5, 3 mM MgCl2, 10 mM MnCl2, 1 mM DTT, 0.1 μCi/assay (=30 μL) [γ-^33P]-ATP, 2 μM ATP, 3 μg/mL poly (Glu, Tyr 4:1) Poly-EY (Sigma P-0275), 1% DMSO, 25 ng ALK enzyme. Assays are incubated for 10 minutes at ambient temperature. Reactions are terminated by adding 50 μL of 125 mM EDTA, and the reaction mixture is transferred onto a MAIP Multiscreen plate (Millipore, Bedford, Mass., USA), previously wet with methanol, and re-hydrated for 5 minutes with H2O. Following washing (0.5% H3PO4), plates are counted in a liquid scintillation counter. IC50 values are calculated by linear regression analysis of the percentage inhibition. Compared with the control without inhibitor, the compounds of formula (I) inhibit the enzyme activity by 50% (IC50), e.g., in a concentration of from 0.001-0.5 μM, especially from […].

T1 sequence (P23443 1-421 T412E): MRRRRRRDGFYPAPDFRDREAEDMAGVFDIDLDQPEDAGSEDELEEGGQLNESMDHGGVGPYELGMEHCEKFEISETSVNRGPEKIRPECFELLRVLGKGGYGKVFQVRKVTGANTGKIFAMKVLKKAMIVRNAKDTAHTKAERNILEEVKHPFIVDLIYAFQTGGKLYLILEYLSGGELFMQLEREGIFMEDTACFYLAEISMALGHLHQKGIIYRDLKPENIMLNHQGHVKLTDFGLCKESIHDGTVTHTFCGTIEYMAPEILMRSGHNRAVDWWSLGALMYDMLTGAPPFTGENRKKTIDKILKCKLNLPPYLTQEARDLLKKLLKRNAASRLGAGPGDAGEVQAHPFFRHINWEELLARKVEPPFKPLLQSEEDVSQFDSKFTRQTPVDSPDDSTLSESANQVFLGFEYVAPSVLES

The pIC50 is the IC50 on a negative log10 scale, so that one unit is a factor of ten. On to `NCCc1ccc(-n2cnc3cnc4ccc(-c5ccc6[nH]ccc6c5)cc4c32)c(Cl)c1` [Example 11, 2-{3-Chloro-4-[8-(1H-indol-5-yl)-imidazo[4,5-c]quinolin-1-yl]-phenyl}-ethylamine], for which the negative logarithm of the IC50 (pIC50) in experiment [1] and in experiment [2] was at least 6.30 in each case.

For the compound `NCCCc1ccc(-n2cnc3cnc4ccc(-c5ccc6[nH]ccc6c5)cc4c32)c(Cl)c1` [Example 48, 3-{3-Chloro-4-[8-(1H-indol-5-yl)-imidazo[4,5-c]quinolin-1-yl]-phenyl}-propylamine], the pIC50 in experiment [2] is at least 6.30.

`NCCc1ccc(-n2cnc3cnc4ccc(-c5ccc6[nH]ccc6c5)cc4c32)cc1F` [Example 18, 2-{2-Fluoro-4-[8-(1H-indol-5-yl)-imidazo[4,5-c]quinolin-1-yl]-phenyl}-ethylamine]: in experiment [1], the pIC50 was at least 6.30. In experiment [2], the “IC50 Range Class, inhibition of ALK” value was “B/A”.
